Data on four compounds can be found in article PMC11585928, “Screening the Global Health Priority Box against Plasmodium berghei liver stage parasites using an inexpensive luciferase detection protocol” (Malaria Journal, 2024).

The structures appear in SMILES notation. Where two headings read alike, the source gives them in different places.

The term EC50 denotes the concentration giving half of the maximal effect.

In data set [1] the test system is P. berghei liver schizonts. In words: GHPB single point primary screen, FLAR luciferase endpoint. The data set is classed as cell-based, Plasmodium berghei. The settings on record: 1 µM; for activity and selectivity in the primary screens: hit = > 80% inhibition of P. berghei and < 15% inhibition of HepG2. On the procedure: The GHPB is an open-access collection of compounds (80 for vector control, 80 for zoonotic and neglected diseases, 80 for drug resistant malaria) obtained from MMV. The library was supplied in a 96-well microtitre plate and moved into a low-volume 384-well plate (Greiner Bio-One, cat 784,261) using a Biomek NXp to transfer 5 μL of 1 mM compound into the destination wells. MMV390048 (1 µM) was used for the positive control wells and DMSO (0.1% v/v) was used for the negative control wells. The GHPB was screened by seeding 5 × 10^3 cells/well which, after 24 h, were infected with a maximum available inoculum of 1.44 × 10^3 sporozoites/well. Three hours post-infection, plates were treated with a pin tool as described above. After 44 h, media was dumped from the plate, lysed using the freeze/thaw method, and luciferase signal was detected with 1 × FLAR as described above.

In data set [2] the test system is P. berghei liver schizonts. Put plainly: GHPB dose-response confirmation, FLAR luciferase endpoint. It counts as cell-based, Plasmodium berghei. The settings on record: for Activity (grouping in dose-response confirmation runs): grouped as selectively active, active but with low selectivity, nonselective or inactive. How it is done:
A total of 35 compounds were identified for resupply of fresh powder for confirmation in dose–response assays. […] Powders were diluted to 50 mM in DMSO and plated in 1000 × source plates as described above. MMV390048 and puromycin were plated as the positive control for P. berghei liver schizont activity and cytotoxicity, respectively. Two independent experiments using 1 × FLAR and 5 × 10^3 cells/well were performed to assess the potency of these compounds against P. berghei liver schizonts, each with an independent production run of P. berghei sporozoites. […] Separately, two independent runs of the HepG2 cultured in galactose, assayed as described above, were used to assess the cytotoxicity potency and selectivity indices for these compounds. Both P. berghei liver schizont and HepG2 cytotoxicity data were loaded into CDD Vault for normalization, curve fitting, and EC50 calculations as described above. Receiver-operator characteristic (ROC) curves were generated using Graphpad Prism and area under the curve (AUC) was calculated using the Wilson/Brown method for both P. berghei liver schizont activity and HepG2 cytotoxicity.

Data set [3] has as its system HepG2 cells. In words: HepG2 cytotoxicity assay in galactose media, 72 h, hepatic nuclei count by HCI. The data set is classed as cell-based, Homo sapiens. How it is done: To assess the general cytotoxicity of GHPB compounds, HepG2 cells were cultured in media containing galactose instead of glucose to avoid false negatives due to the Crabtree effect. Following propagation of HepG2 in T-75 flasks with glucose-containing media as above, media was aspirated, the cell monolayer was washed with PBS, and then cells were trypsinized as above. Released cells were then resuspended in media containing glucose-free DMEM (Gibco, cat 11,966–025) supplemented with 10% FBS (Corning, cat 35–016-CV), 10 mM galactose (Sigma, cat G5388), 1 mM sodium pyruvate (Corning, cat 25–000-CI), 1 × penicillin–streptomycin-neomycin mix (Gibco, cat 15,640–055), and 2 mM L-glutamine (Gibco, cat 25,030–081). The cell density was calculated using trypan blue exclusion on a haemocytometer, diluted to 50 cells/µL, and 40 µL of cells were seeded into collagen-coated 384-well plates (Greiner Bio-One, cat 781,956) using a Biomek NXp (Beckman Coulter), resulting in 2 × 10^3 cells/well. The day after seeding, plates were treated with a pin tool as above and cultured for 72 h. Plates were then fixed with 4% paraformaldehyde, stained with 10 µg/mL Hoechst 33,342, and imaged on an ImageXpress Micro Confocal. Hepatic nuclei were quantified using MetaXpress (Molecular Devices) image analysis software. Both P. berghei liver schizont and HepG2 cytotoxicity data were loaded into CDD Vault for normalization and hit selection as described above. A total of 35 compounds were identified for resupply of fresh powder for confirmation in dose–response assays. […] Powders were diluted to 50 mM in DMSO and plated in 1000 × source plates as described above. […] Separately, two independent runs of the HepG2 cultured in galactose, assayed as described above, were used to assess the cytotoxicity potency and selectivity indices for these compounds. […] Receiver-operator characteristic (ROC) curves were generated using Graphpad Prism and area under the curve (AUC) was calculated using the Wilson/Brown method for both P. berghei liver schizont activity and HepG2 cytotoxicity.

For data set [4], the system named is P. berghei liver schizonts. Also noted: method as in PMID 30523084. The settings on record: read-out: EC50 against P. berghei liver schizonts (reported); cited from earlier work.

For the compound `O=C(Nc1ncccc1O)c1ccc(N2CCOCC2)nc1` [MMV1103183], in data set [1], the “activity and selectivity in the primary screens” value is “active and selective”. Also, in data set [2], the “Activity (grouping in dose-response confirmation runs)” value is “active and selective”. In addition, in data set [3], the “HepG2 Cytotoxicity (pEC50 ± SD)” value stood at 5.03 ± 0.02.

Turning to `Cn1cc(CN2CCc3c(c(C(=O)NCc4nccs4)nn3Cc3ccccc3)C2)c2ccccc21` [MMV1167451], the EC50 in data set [4] was 6300 nM.

`CCCOc1ccc(C(F)(F)F)cc1NC(=O)c1nc2nccc(C)n2n1` [MMV1262756]: the EC50 in data set [4] is 105 nM.

With `Cn1ccnc1SCC(=O)Nc1ccc(C(=O)Nc2ncccc2O)cc1` [MMV1267536], the “inhibition of P. berghei liver schizonts in the primary screen” value in data set [1] (44 h) turned out to be 69.1%. For the same compound, the “activity and selectivity in the primary screens” value in data set [1] was “not considered hits”. In addition, in data set [2] (dose-response confirmation, FLAR, read-out: EC50 against P. berghei liver schizonts), the EC50 stood at 127 nM. In addition, in data set [2], the “Activity (grouping in dose-response confirmation runs)” value is “active and selective”. For the same compound, the “HepG2 Cytotoxicity (pEC50 ± SD)” value in data set [3] came out at 4.83 ± 0.26.
